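Method: 48-hour compound exposure of cells in 96-well plates, five concentrations, linear interpolation of endpoints. TGI marks complete inhibition of growth.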
How the values were obtained:
Test in all cases: NCI-60 cell line screen, 48 h
[1] = system: OVCAR-4 ovarian
[2] = system: UACC-257 melanoma
[3] = system: RPMI-8226 leukemia
[4] = system: LXFL 529 NSCLC
[5] = system: SW-620 colon
[6] = system: COLO 205 colon
[7] = system: NCI-H460 lung
[8] = system: XF 498 CNS
[9] = system: HCT-116 colon
[10] = system: HCC-2998 colon
[11] = system: DMS 273 small cell lung
[12] = system: SF-539 CNS
[13] = system: UACC-62 melanoma
[14] = system: SF-295 CNS
[15] = system: UO-31 renal
[16] = system: M14 melanoma
[17] = system: RXF 393 renal
[18] = system: MALME-3M melanoma
[19] = system: NCI-H522 lung
[20] = system: K-562 leukemia
[21] = system: HT29 colon
[22] = system: A549 NSCLC
[23] = system: OVCAR-8 ovarian
[24] = system: KM12 colon
[25] = system: M19-MEL melanoma
[26] = system: NCI-H23 lung
[27] = system: SK-MEL-28 melanoma
[28] = system: MOLT-4 leukemia
[29] = system: OVCAR-3 ovarian
[30] = system: IGROV1 ovarian
[31] = system: SNB-19 CNS
[32] = system: TK-10 renal
[33] = system: HL-60(TB) leukemia
[34] = system: SN12C renal
[35] = system: HOP-92 NSCLC
[36] = system: DLD-1 colon
[37] = system: LOX IMVI melanoma
[38] = system: NCI-H226 lung
[39] = system: CAKI-1 renal
[40] = system: SNB-75 CNS
[41] = system: U251 CNS
[42] = system: SK-OV-3 ovarian
[43] = system: OVCAR-5 ovarian
[44] = system: RXF-631 renal
[45] = system: SR leukemia
[46] = system: CCRF-CEM leukemia
[47] = system: 786-0 renal
[48] = system: KM20L2 colon
[49] = system: SF-268 CNS
[50] = system: HOP-62 NSCLC
[51] = system: SK-MEL-5 melanoma
[52] = system: DMS 114 small cell lung
[53] = system: ACHN renal
[54] = system: EKVX NSCLC
[55] = system: SK-MEL-2 melanoma
[56] = system: HCT-15 colon
[57] = system: SNB-78 CNS
[58] = system: A498 renal

Measured: TGI

CN(O)C(=O)c1ccccc1
> 100 µM: [1] | [2] | [3] | [4] | [5] | [6] | [7] | [8] | [9] | [10] | [11] | [12] | [13] | [14] | [15] | [16] | [17] | [18] | [19] | [20] | [21] | [22] | [23] | [24] | [25] | [26] | [27] | [28] | [29] | [30] | [31] | [32] | [33] | [34] | [35] | [36] | [37] | [38] | [39] | [40] | [41] | [42] | [43] | [44] | [45] | [46] | [47] | [48] | [49] | [50] | [51] | [52] | [53]

Cc1nc(-c2nc(C)c(C(=O)/C=C/c3ccc(N(C)C)cc3)s2)sc1C(=O)/C=C/c1ccc(N(C)C)cc1
89.2 µM: [19]
44.6 µM: [8]
58 µM: [13]
> 100 µM: [1] | [2] | [4] | [5] | [6] | [7] | [9] | [10] | [11] | [12] | [14] | [15] | [16] | [54] | [17] | [18] | [20] | [22] | [23] | [24] | [25] | [26] | [27] | [28] | [29] | [30] | [31] | [32] | [33] | [34] | [36] | [55] | [37] | [38] | [39] | [41] | [42] | [43] | [44] | [45] | [46] | [47] | [48] | [49] | [50] | [52] | [56] | [53]

Cc1cc2c(c(C(N)=O)c1C)-c1cccc(Cl)c1C2=O
> 100 µM: [1] | [2] | [3] | [4] | [5] | [6] | [7] | [8] | [9] | [57] | [10] | [11] | [12] | [13] | [14] | [15] | [16] | [54] | [18] | [19] | [20] | [21] | [22] | [23] | [24] | [26] | [27] | [28] | [29] | [30] | [31] | [32] | [33] | [58] | [34] | [35] | [36] | [55] | [37] | [40] | [41] | [42] | [43] | [44] | [46] | [47] | [48] | [49] | [50] | [51] | [52] | [56] | [53]
